Measurements from paper PMC11561197, “Computational-guided discovery of UDP-glycosyltransferases for lauryl glucoside production using engineered E. coli” (Bioresources and Bioprocessing, 2024).

Target: T1, RO3G (UDP-glycosyltransferase candidate, EIE92684.1) (Rhizopus delemar, UniProt I1CW54)
T1 construct: gene RO3G_17395; codon-optimised synthetic gene in pCDFDuet-1, expressed in E. coli BL21(DE3); no predicted signal peptide; not purified
T1 sequence (I1CW54 1-527): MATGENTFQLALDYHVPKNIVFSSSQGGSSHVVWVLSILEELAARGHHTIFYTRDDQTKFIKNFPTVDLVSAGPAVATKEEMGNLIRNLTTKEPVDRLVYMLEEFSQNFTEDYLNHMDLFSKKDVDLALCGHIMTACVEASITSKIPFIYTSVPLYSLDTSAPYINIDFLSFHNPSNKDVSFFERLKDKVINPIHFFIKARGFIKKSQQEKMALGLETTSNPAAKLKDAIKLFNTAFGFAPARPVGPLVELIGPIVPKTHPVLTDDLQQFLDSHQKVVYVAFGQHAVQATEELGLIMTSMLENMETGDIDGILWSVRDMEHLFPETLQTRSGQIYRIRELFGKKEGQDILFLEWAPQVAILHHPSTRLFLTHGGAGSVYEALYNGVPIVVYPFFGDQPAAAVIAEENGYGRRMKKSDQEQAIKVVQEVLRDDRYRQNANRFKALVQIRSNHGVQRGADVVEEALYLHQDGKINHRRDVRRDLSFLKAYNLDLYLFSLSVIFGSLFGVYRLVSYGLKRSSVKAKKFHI
Assay: 1-dodecanol feeding of expressing E. coli; lauryl glucoside by HPLC-RI and LC-MS
Format: cell-based
Conditions: whole E. coli BL21(DE3), M9 with 2% glucose, 2.0 mM 1-dodecanol, 30 °C, 48 h; endogenous UDP-glucose as presumed donor; GFP strain as control

Q: How did the “1-dodecanol feeding of expressing E. coli; lauryl glucoside by HPLC-RI and LC-MS” value turn out when `CCCCCCCCCCCCO` [1-dodecanol] was run?
A: The engineered strain successfully converted 1-dodecanol to lauryl glucoside, as quantified by HPLC
